For one assay, the target named is S1P1 R120A/E121A (Homo sapiens, UniProt P21453, E121A/R120A). Briefly: Phosphorylated-ERK1/2 In Cell Western, S1P1 mutant R120A/E121A. Format: cell-based. As for the experimental part:
(§1) Quick-change mutagenesis with PfuTurbo DNA polymerase (Stratagene) was conducted using S1P1/pcDNA3.1 (Missouri S&T cDNA Resource Centre) as the template. Primers were as follows: […]
(§2) PCR conditions were 15 cycles with the following parameters: 95° C. 30 sec, 58° C. 30 sec, 68° C. for 60 sec. All constructs were sequence verified.
(§3) CHOK1 cells were transfected using Fugene (Roche). Stably expressing mixed pools were selected with 2 mg/ml G418. Expression of functional S1P1/EDG1 receptor was confirmed by cell surface FACS with a S1P1 antibody (R&D Systems, clone 218713). Stable pools were seeded at 40,000 cells/well in a clear bottom 96-well tray, and incubated at 37° C. in 5% CO2 for 18 hrs. Cells were serum-starved in FreeStyle 293 medium (Invitrogen) for 4-6 h, then incubated for 5 min with a dose response of compound, in duplicate. Cells were fixed with 4% paraformaldehyde for 20 min, permeabilized with 0.1% Triton X-100 in PBS (4×5 min washes) and blocked for 1 h in Odyssey Blocking Buffer (LI-COR). All incubations were at room temperature. Cells were incubated for 18 h at 4° C. in Rabbit anti-Phospho-ERK1/2 (Cell Signaling #4377) and Mouse anti-ERK1/2 (Cell Signaling #9107) both diluted 1:800 in Odyssey Blocking Buffer. […] Data was analyzed by non-linear regression using GraphPad Prism to determine the EC50 of binding.

A further assay deals with S1P1 N101A (Homo sapiens, UniProt P21453, N101A). In words: Phosphorylated-ERK1/2 In Cell Western, S1P1 mutant N101A. Format: cell-based. The method, then:
as §1, §2, §3

For a further assay, the target named is S1P1 W269L (Homo sapiens, UniProt P21453, W269L). In words: S1P1 mutagenesis analysis, W269L mutant. It counts as cell-based. As for the experimental part: as §3, with “Buffer. Plates were washed with 0.1% Tween-20 in PBS and then incubated with Odyssey Blocking Buffer containing IRDye 680-labeled goat anti-rabbit antibody (#926-32221; diluted 1/500) and IRDye 800CW-labeled goat anti-mouse antibody (#926-32210; diluted 1/1000). Plates were washed with 0.1% Tween-20 in PBS, all liquid was removed from the wells and the plates were scanned using a LICOR Odyssey scanner.” for “Buffer.”, “binding. […]” for “binding.”

For the next assay, the target named is S1P1 (Homo sapiens, UniProt P21453). Briefly: Phosphorylated-ERK1/2 In Cell Western, wild type S1P1 in CHOK1. It counts as cell-based. As for the experimental part:
as §3, with “Buffer. Plates were washed with 0.1% Tween-20 in PBS and then incubated with Odyssey Blocking Buffer containing IRDye 680-labeled goat anti-rabbit antibody (#926-32221; diluted 1/500) and IRDye 800CW-labeled goat anti-mouse antibody (#926-32210; diluted 1/1000). Plates were washed with 0.1% Tween-20 in PBS, all liquid was removed from the wells and the plates were scanned using a LICOR Odyssey scanner.” for “Buffer.”

For assay [1], the system named is CD4 or CD8 positive T cells. Particulars: racemic compound 253; data stated as reported by Gonzalez-Cabrera et al. 2008; cited from earlier work.
The next assay deals with S1P1/EDG1 (Homo sapiens, UniProt P21453). In words: S1P1 CRE-bla CHOK1 reporter assay, inhibition of Forskolin induced cAMP. It counts as cell-based. As to conditions: CRE-bla CHOK1 cells, 2 μM Forskolin; read-out: S1P1 ACTIVITY (agonist activity). The method, then:
Generation of S1P1-Mediated Inhibition of cAMP Reporter Assay
S1P1/pcDNA3.1 was transfected into the CRE-bla CHO K1 (Invitrogen) cell line, and stable single cell clones were selected using standard techniques.
S1P1 CRE-Bla CHOK1 Reporter Assay—Characterization of S1P1 Agonists
Cells were seeded into 384-well black wall/clear bottom plates at 10^4 cells/well/19.5 μl assay media (DMEM-phenol free, 0.5% charcoal/dextran stripped serum, 2 mM glutamine, 0.1 mM NEAA, 1 mM Na-Pyruvate, 25 mM Hepes) and incubated for 18 hrs at 37° C. in 5% CO2. Dose response curves (10-point) were generated in 10 mM Hepes, 0.1% Pluronic F127, in the presence of Forskolin. Cells were treated with 0.5 μl compound in the presence of 2 μM Forskolin for 4 hrs at 37° C. The FRET-based β-lactamase fluorescent substrate (LiveBLAzer™-FRET B/G Loading Kit CC4-AM; Invitrogen) was prepared according to manufacturer's directions, and incubated with cells for 2 hrs at room temperature. […] Data was analyzed by non-linear regression to determine the EC50 for inhibition of Forskolin induced cAMP.

For assay [2], the system named is influenza A virus (A/WSN/33). In words: Influenza A H1N1 model in mice. As to conditions: mouse, in vivo.

Chain of S1P1/EDG1 (P21453 whole entry): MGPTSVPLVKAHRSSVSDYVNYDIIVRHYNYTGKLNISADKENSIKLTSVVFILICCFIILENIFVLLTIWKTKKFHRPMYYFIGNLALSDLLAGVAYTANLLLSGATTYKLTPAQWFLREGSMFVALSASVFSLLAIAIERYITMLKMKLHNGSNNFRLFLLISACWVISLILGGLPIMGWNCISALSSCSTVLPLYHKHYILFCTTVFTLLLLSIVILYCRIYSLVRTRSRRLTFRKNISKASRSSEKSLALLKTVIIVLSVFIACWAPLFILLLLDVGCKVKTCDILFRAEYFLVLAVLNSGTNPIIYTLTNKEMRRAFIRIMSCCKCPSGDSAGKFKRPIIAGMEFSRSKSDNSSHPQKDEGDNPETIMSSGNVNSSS
Chain of S1P1 N101A (P21453 whole entry N101A): as the sequence (P21453 whole entry) above, with N101A counted along it
Chain of S1P1 W269L (P21453 whole entry W269L): as the sequence (P21453 whole entry) above, with W269L counted along it
Chain of S1P1 R120A/E121A (P21453 whole entry R120A/E121A): as the sequence (P21453 whole entry) above, with R120A, E121A counted along it
Chain of S1P1 (P21453 whole entry): as the sequence (P21453 whole entry) above

Turning to `CC(C)Oc1ccc(-c2nc(-c3cccc4c3CCC4NCCC(=O)O)no2)cc1C#N` (racemic) [Compound 38], the “effect of S1P1 mutation on binding” value is reported as “diminishes binding” on S1P1 R120A/E121A, “no effect on binding” on S1P1 N101A and “abolishes binding” on S1P1 W269L. The “S1P1 agonism, phosphorylation of ERK1/2” value at S1P1 is recorded as “induce phosphorylation of ERK1/2”.

For `CCOc1ccc(-c2nc(-c3cccc4c3CCC4NCCO)no2)cc1OCC` (racemic) [Compound 253, (+/−)-2-((4-(5-(3,4,DIETHOXYPHENYL)-1,2,4-OXADIAZOL-3-YL)-2,3-DIHYDRO-1H-INDEN-1-YL) AMINO)ETHANOL], the “Mouse Lymphopenia (AUEC)” value in assay [1] is recorded as 116.

As to `CCOc1ccc(-c2nc(-c3cccc4c3CC[C@H]4O)no2)cc1[N+](=O)[O-]` [Compound 11], the EC50 on S1P1/EDG1 was 0.5 to 5 nM.

As to `CCOc1ccc(-c2nc(-c3cccc4c3CC[C@@H]4O)no2)cc1[N+](=O)[O-]` [Compound 12], the EC50 at S1P1/EDG1 fell in the range of 0.5 to 5 nM.

Turning to `CC(C)Oc1ccc(-c2nc(-c3cccc4c3CCC4NC[C@H](O)CO)no2)cc1C#N` (stereo partly shown) [Compound 41], the EC50 at S1P1/EDG1 fell in the range of 0.05 to 0.5 nM.

As to `CC(C)Oc1ccc(-c2nc(-c3cccc4c3CCC4NC[C@@H](C)O)no2)cc1C#N` (stereo partly shown) [Compound 42], the EC50 at S1P1/EDG1 lay within 0.5 to 5 nM.

In the case of `CC(C)Oc1ccc(-c2nc(-c3cccc4c3CCC4NC[C@H](C)O)no2)cc1C#N` (stereo partly shown) [Compound 43], on S1P1/EDG1, the EC50 was 0.05 to 0.5 nM.

With `CC(C)Oc1ccc(-c2nc(-c3cccc4c3CC[C@@H]4N)no2)cc1C#N` [Compound 50, (S)-5-(3-(1-amino-2,3-dihydro-1H-inden-4-yl)-1,2,4-oxadiazol-5-yl)-2-isopropoxy-benzonitrile], the results for the “effect of S1P1 mutation on binding” value on S1P1 R120A/E121A, at S1P1 N101A and at S1P1 W269L were “no influence on the binding”, “reduces the binding” and “abolishes binding”, respectively. The “S1P1 agonism, phosphorylation of ERK1/2” value at S1P1 is on record as “induce phosphorylation of ERK1/2”.

In the case of `CC(C)Oc1ccc(-c2nc(-c3cccc4c3CC[C@H]4NC(C)C(=O)N(C)C)no2)cc1C#N` (stereo partly shown) [Compound 58], the EC50 at S1P1/EDG1 is 0.5 to 5 nM.

In the case of `CC(C)Oc1ccc(-c2nc(-c3cccc4c3CC[C@H]4NCC(=O)N3CCOCC3)no2)cc1C#N` [Compound 59], on S1P1/EDG1, the EC50 lay within 0.05 to 0.5 nM.

Consider `CC(C)Oc1ccc(-c2nc(-c3cccc4c3CC[C@H]4NS(C)(=O)=O)no2)cc1C#N` [Compound 70], for which the EC50 on S1P1/EDG1 was 0.05 to 0.5 nM.

As to `CNCCS(=O)(=O)N[C@@H]1CCc2c(-c3noc(-c4ccc(OC(C)C)c(C#N)c4)n3)cccc21` [Compound 74], the EC50 at S1P1/EDG1 was in the range of 0.05 to 0.5 nM.

As to `CC(C)Oc1ccc(-c2nc(-c3cccc4c3CC[C@H]4NS(=O)(=O)CCN(C)C)no2)cc1C#N` [Compound 77], the EC50 at S1P1/EDG1 was 0.05 to 0.5 nM.

For the molecule `CC(C)Oc1ccc(-c2nc(-c3cccc4c3CC[C@H]4NCCO)no2)cc1C#N` [Compound 85, (R)-5-(3-(1-(2-hydroxyethylamino)-2,3-dihydro-1H-inden-4-yl)-1,2,4-oxadiazol-5-yl)-2-isopropoxybenzonitrile], the “suppression of cellular infiltrate into the lungs” value in assay [2] is recorded as 40%.

On to `COCCN[C@@H]1CCc2c(-c3noc(-c4ccc(OC(C)C)c(C#N)c4)n3)cccc21` [Compound 88], for which the EC50 at S1P1/EDG1 fell in the range of 0.5 to 5 nM.

`CC(C)Oc1ccc(-c2nc(-c3cccc4c3CC[C@H]4N(C)CCO)no2)cc1C#N` [Compound 111]: the EC50 at S1P1/EDG1 was in the range of 0.5 to 5 nM.

Regarding `CC(C)Oc1ccc(-c2nc(-c3cccc4c3CC[C@@H]4N(C)CC(=O)N(C)C)no2)cc1C#N` [Compound 115], at S1P1/EDG1, the EC50 was in the range of 0.5 to 5 nM.

Turning to `CC(C)Oc1ccc(-c2nc(-c3cccc4c3CC[C@@H]4N(CCO)S(=O)(=O)c3ccccc3)no2)cc1C#N` [Compound 117], the EC50 on S1P1/EDG1 is more than 5 nM.

For `CC(C)Oc1ccc(-c2nc(-c3cccc4c3CC[C@@H]4NC(=O)N(C)C)no2)cc1C#N` [Compound 120], the EC50 at S1P1/EDG1 was in the range of 0.05 to 0.5 nM.

In the case of `CC(C)Oc1ccc(-c2nc(-c3cccc4c3CC[C@H]4NC(=O)c3ccc(Br)cc3)no2)cc1C#N` [Compound 122], the EC50 at S1P1/EDG1 was more than 5 nM.

Regarding `CC(C)Oc1ccc(-c2nc(-c3cccc4c3CC[C@H]4NS(=O)(=O)CCN3CCC3)no2)cc1C#N` [Compound 168], on S1P1/EDG1, the EC50 is 0.05 to 0.5 nM.

`CC(C)Oc1ccc(-c2nc(-c3cccc4c3CC[C@@H]4NS(=O)(=O)CCN3CCC(O)CC3)no2)cc1C#N` [Compound 178]: the EC50 at S1P1/EDG1 lay in the range of 0.5 to 5 nM.

As for `CC(C)Oc1ccc(-c2nc(-c3cccc4c3CC[C@@H]4NS(=O)(=O)CCN3CCNCC3)no2)cc1C#N` [Compound 179], at S1P1/EDG1, the EC50 lay within 0.5 to 5 nM.

With `CC(C)Oc1ccc(-c2nc(-c3cccc4c3CC[C@@H]4NS(=O)(=O)CCNCCO)no2)cc1C#N` [Compound 180], the EC50 at S1P1/EDG1 was 0.05 to 0.5 nM.

`CC(C)Oc1ccc(-c2nc(-c3cccc4c3CC[C@@H]4NS(=O)(=O)CCN3CC(O)C3)no2)cc1C#N` [Compound 181]: the EC50 at S1P1/EDG1 lay within 0.05 to 0.5 nM.
